In US6900231B2, “Aminopyridyl-substituted phenyl acetamides as protease inhibitors” (3-Dimensional Pharmaceuticals, Inc., priority 2000, dated 2005):
Where a name gives a salt, the structure may show the parent alone.

Target: T1, human α-thrombin (Homo sapiens, UniProt P00734)
T1 construct: Human α-thrombin, human factor Xa and human plasmin were obtained from Enzyme Research Laboratories; purchased Enzyme Research Laboratories (South Bend, Ind.)
Experiment: In vitro inhibition of purified enzymes: Ki determination, hydrolysis of peptide p-nitroanilide substrate by thrombin
Format: biochemical
Text: Reagents: All buffer salts were obtained from Sigma Chemical Company (St. Louis, Mo.), and were of the highest purity available.
Human α-thrombin, human factor Xa and human plasmin were obtained from Enzyme Research Laboratories (South Bend, Ind.). Bovine α-chymotrypsin (Sigma C4129), bovine trypsin (Sigma T8642) and human kidney cell urokinase (Sigma U5004) were obtained from Sigma. Human leukocyte elastase was obtained from Elastin Products (Pacific, Mo.).
Ki Determinations: All assays are based on the ability of the test compound to inhibit the enzyme catalyzed hydrolysis of a peptide p-nitroanilide substrate. […] The final concentrations for each of the substrates is listed below. In general, substrate concentrations are lower than the experimentally determined value for Km. Test compounds are prepared as a 1.0 mg/ml solution in DMSO. […]
Data corresponding to less than 10% of the total substrate hydrolysis were used in the calculations. The ratio of the velocity (rate of change in absorbance as a function of time) for a sample containing no test compound is divided by the velocity of a sample containing test compound, and is plotted as a function of test compound concentration. The data are fit to a linear regression, and the value of the slope of the line calculated. The inverse of the slope is the experimentally determined Ki value. […]

## Cc1nc(N)ccc1CNC(=O)Cc1c(Cl)ccc(NCC(F)(F)c2ccc(F)c3ccccc23)c1F [Example 5, N-[(6-Amino-2-methyl(3-pyridyl))methyl]-2-(3-{[2,2-difluoro-2-(4-fluoronaphthyl)ethyl]amino}-6-chloro-2-fluorophenyl)acetamide Hydrochloride Salt]
  Ki: 2.8 nM
